In one data set the test system is Klebsiella pneumoniae. As to the kind of experiment: Checkerboard growth inhibition assay, Klebsiella pneumoniae. As to conditions: CM4 did not inhibit growth in the range used. The format is cell-based. On the procedure:
(§1) Each combination was performed in triplicate.
(§2) The interaction between two drugs was interpreted as synergistic if FICi was ≤0.5, indifferent if it was >0.5 and ≤4, and antagonistic if it was >4.
Triple synergy is based on the pairwise synergies of the three antibacterials, FZ (a nitrofuran), DOC and Van. To start understanding the triple interaction, a series of experiments analysing pairwise combinations were carried out. […] In contrast, Klebsiella is susceptible to synergistic action of FZ (but not NF and NFZ) with DOC and is resistant to nitrofuran CM4.

A further data set has as its system E. coli K12. Put plainly: Checkerboard / dose-response growth inhibition assay, E. coli K12. Type of data set: cell-based, Escherichia coli. As to conditions: for growth inhibition at the concentrations of the time-kill assay: FZ 1.25 μg/ml, alone or in combination; for FIC of the single component within the triple combination: Van+FZ+DOC at the lowest FICi point. Here is the method:
E. coli was grown in 2×YT medium (BD Difco) at 37° C. with shaking at 200 rpm. For preparation of exponential phase cells, fresh overnight culture was 100-fold diluted and incubated to reach the OD600nm of about 0.1-0.2. This cell suspension was then diluted to the desirable concentration depending on specific purposes.
as §1, §2
(§3) A growth inhibition assay was used where a series of concentrations of each antibacterial was applied combined with several concentrations of other two antibacterials (7 concentrations of Van, 8 of FZ and 9 of DOC). […] Starting from the highest concentrations, two-fold dilution series were assayed. E. coli cultures were seeded with ˜10^6 cells/mL and incubated overnight. Optical densities of each combination of concentrations were measured to assess growth and the inhibition relative to the no-antibiotic control were calculated. […] The synergistic interaction has been defined by the Fractional Inhibitory Concentration index (FICi); see the Definitions and Material and Methods sections. FICi represents the sum of the individual Fractional Inhibitory Concentrations (FIC). An FIC in turn is equal to the ratio of concentration that inhibits growth (>90%) in combination vs. alone. For pairwise combinations, the FICi below 0.5 (below 0.25 for each antibiotic) is considered synergistic; by extension for triple combination the FICi should be <0.75 (again below 0.25 for each antibiotic).

A further data set concerns Escherichia coli O157. As to the kind of experiment: Checkerboard growth inhibition assay, E. coli O157. The format is cell-based. As to conditions: for FIC of the single component within the triple combination: Van+FZ+DOC at the lowest FICi point. On the procedure:
as §1, §2, §3

Data set [1] concerns E. coli. As to the kind of experiment: Growth inhibition of E. coli by vancomycin (strain not specified).
For data set [2], the system named is E. coli. As to conditions: cited from earlier work.
For data set [3] the following is noted: cited from earlier work.
Data set [4] has as its system various Gram-negative bacteria. As to the kind of experiment: Inhibition of various Gram-negative bacteria by vancomycin alone and in combination. The format is cell-based. Here is the method:
as §1

The mark [5] stands for this setting: with FZ and DOC, at the lowest FICi point.

Each structure is given as a SMILES string. Converted amounts (≈) assume the structure as drawn. “And” between values parts separate entries of the source, which are not always exact repeats. Equal entries are not always repeated.

For `O=C(NN=Cc1ccc([N+](=O)[O-])o1)c1ccco1` [CM4, N′-[(5-nitrofuran-2-yl)methylidene]furan-2-carbohydrazide], in the data set on Klebsiella pneumoniae, the “concentration range in which growth was not inhibited (up to)” value is above 256 µg/mL.

As to `O=C1OCCN1/N=C/c1ccc([N+](=O)[O-])o1` [FZ, 3-[(E)-(5-nitrofuran-2-yl)methylideneamino]-1,3-oxazolidin-2-one], the “growth inhibition at the concentrations of the time-kill assay” value (from here on “growth inhibition at the concentrations”) is given as “sub-inhibitory” in the data set with E. coli K12 (strain BW25113, Van 125 μg/ml) and “sub-inhibitory” in the data set on E. coli K12 (strain K1508, DOC 2,500 μg/ml). Further, the “FIC of the single component within the triple combination” value (from here on “FIC”) with Escherichia coli O157 is given as 0.0625.

For the molecule `CN[C@H](CC(C)C)C(=O)N[C@H]1C(=O)N[C@@H](CC(N)=O)C(=O)N[C@H]2C(=O)N[C@H]3C(=O)N[C@H](C(=O)N[C@H](C(=O)O)c4cc(O)cc(O)c4-c4cc3ccc4O)[C@H](O)c3ccc(c(Cl)c3)Oc3cc2cc(c3O[C@@H]2O[C@H](CO)[C@@H](O)[C@H](O)[C@H]2O[C@H]2C[C@](C)(N)[C@H](O)[C@H](C)O2)Oc2ccc(cc2Cl)[C@H]1O` [Van, vancomycin], in the data set with E. coli [1], the “concentration required for E. coli growth inhibition when used on its own” value was above 250 µg/mL. In the data set on E. coli [1] (E. coli K12 and O157, with FZ and DOC), the “Van concentration in triple combination at several points in the graph” value was 16 µg/mL and 10 µg/mL. For the same molecule, the “MIC when used on its own” value with E. coli [2] was 250 µg/mL (≈ 173 µM). Besides, the “concentration of Van required to inhibit, used alone” value in the data set on E. coli K12 (90% growth inhibition) came to 500 µg/mL; with Escherichia coli O157 (90% growth inhibition), 250 µg/mL. Besides, the “FIC” value with E. coli K12 and in the data set on Escherichia coli O157 was 0.03125 throughout. The “growth inhibition at the concentrations” value with E. coli K12 (strain BW25113, Van 125 μg/ml) was “sub-inhibitory”. The “concentration of Van required to inhibit, in triple combination” value turned out to be 20 µg/mL with E. coli K12 (setting [5]) and 16 µg/mL in the data set on Escherichia coli O157 (setting [5]). Moreover, the known nephrotoxic concentrations in data set [3] (depending on the mode and length of treatment) was 30 µg/mL and 20 µg/mL. Besides, the “concentration considered below nephrotoxic level (sub-toxic)” value in data set [3] (recommended therapeutic concentration, 6-day treatment) is “below 20 μg/mL”. Further, the “concentration of vancomycin required to inhibit, before lowering (alone)” value in data set [4] (some variation between strains) is on record as “about 500 μg/mL”. Moreover, the “bactericidal concentration of vancomycin in the triple combination” value in data set [4] (with a nitrofuran and DOC) is 15.6 µg/mL.

As to `C[C@H](CCC(=O)[O-])[C@H]1CC[C@H]2[C@@H]3CC[C@@H]4C[C@H](O)CC[C@]4(C)[C@H]3C[C@H](O)[C@]12C.[Na+]` [DOC, sodium; (4R)-4-[(3R,5R,8R,9S,10S,12S,13R,14S,17R)-3,12-dihydroxy-10,13-dimethyl-2,3,4,5,6,7,8,9,11,12,14,15,16,17-tetradecahydro-1H-cyclopenta[a]phenanthren-17-yl]pentanoate], the entries for the “FIC” value with E. coli K12 and with Escherichia coli O157 were 0.0625 and 0.03125, respectively. In addition, in the data set with E. coli K12 (strain K1508, DOC 2,500 μg/ml), the “growth inhibition at the concentrations” value is reported as “sub-inhibitory”.

Values taken from US20210330645A1, “ANTIBACTERIAL COMBINATIONS” (priority 2018, published 2021).
